Values after ≈ are worked out from the molar mass of the structure shown.
Legend:
Type in all cases: functional
Klebsiella pneumoniae [1] = assay: Inhibitory activity against Klebsiella pneumoniae 35
Escherichia coli [2] = assay: Inhibitory activity against azide-resistant Escherichia coli J53 T35
Escherichia coli [3] = assay: Inhibitory activity against azide-resistant Escherichia coli J53 T03-222
Klebsiella pneumoniae [4] = assay: Inhibitory activity against Klebsiella pneumoniae 07-006
Escherichia coli [5] = assay: Inhibitory activity against azide-resistant Escherichia coli J53 T12-1502
Escherichia coli [6] = assay: Inhibitory activity against azide-resistant Escherichia coli J53 T12-1183
Klebsiella pneumoniae [7] = assay: Inhibitory activity against Klebsiella pneumoniae 12-1183
Escherichia coli [8] = assay: Inhibitory activity against azide-resistant Escherichia coli J53 T07-006
Escherichia coli [9] = assay: Inhibitory activity against Escherichia coli 12-1502
Klebsiella pneumoniae [10] = assay: Inhibitory activity against Klebsiella pneumoniae 03-222
Escherichia coli [11] = assay: Inhibitory activity against azide-resistant Escherichia coli J53

| Structure (SMILES) | MIC (Klebsiella pneumoniae [1]) | MIC (Escherichia coli [2]) | MIC (Escherichia coli [3]) | MIC (Klebsiella pneumoniae [4]) | MIC (Escherichia coli [5]) | MIC (Escherichia coli [6]) | MIC (Klebsiella pneumoniae [7]) | MIC (Escherichia coli [8]) | MIC (Escherichia coli [9]) | MIC (Klebsiella pneumoniae [10]) | MIC (Escherichia coli [11]) |
| --- | --- | --- | --- | --- | --- | --- | --- | --- | --- | --- | --- |
| COc1c(N2C[C@@H]3CCCN[C@@H]3C2)c(F)cc2c(=O)c(C(=O)O)cn(C3CC3)c12 [MOXIFLOXACIN] | > 8 µg/mL | 0.5 µg/mL (≈ 1.25 µM) | 0.5 µg/mL (≈ 1.25 µM) | 8 µg/mL (≈ 19.9 µM) | 0.5 µg/mL (≈ 1.25 µM) | 1 µg/mL (≈ 2.49 µM) | > 8 µg/mL | 1 µg/mL (≈ 2.49 µM) | 0.5 µg/mL (≈ 1.25 µM) | 8 µg/mL (≈ 19.9 µM) |  |
| CCn1cc(C(=O)O)c(=O)c2ccc(C)nc21 [NALIDIXIC ACID] | > 64 µg/mL | 32 µg/mL (≈ 138 µM) | 32 µg/mL (≈ 138 µM) | > 64 µg/mL | 32 µg/mL (≈ 138 µM) | 32 µg/mL (≈ 138 µM) | > 64 µg/mL | 32 µg/mL (≈ 138 µM) | 16 µg/mL (≈ 68.9 µM) | > 64 µg/mL | 8 µg/mL (≈ 34.4 µM) |
| CO[C@@]1(NC(=O)Cc2cccs2)C(=O)N2C(C(=O)O)=C(COC(N)=O)CS[C@@H]21 [CEFOXITIN] | 32 µg/mL (≈ 74.9 µM) | 4 µg/mL (≈ 9.36 µM) | 4 µg/mL (≈ 9.36 µM) | 16 µg/mL (≈ 37.4 µM) | > 128 µg/mL | 32 µg/mL (≈ 74.9 µM) | > 128 µg/mL | 4 µg/mL (≈ 9.36 µM) | > 128 µg/mL | 16 µg/mL (≈ 37.4 µM) | 4 µg/mL (≈ 9.36 µM) |
| C[C@H]1COc2c(N3CCN(C)CC3)c(F)cc3c(=O)c(C(=O)O)cn1c23.C[C@H]1COc2c(N3CCN(C)CC3)c(F)cc3c(=O)c(C(=O)O)cn1c23.O [LEVOFLOXACIN] | 4 µg/mL | 0.25 µg/mL | 0.25 µg/mL | 8 µg/mL | 0.25 µg/mL |  | > 16 µg/mL | 0.25 µg/mL | 0.25 µg/mL | 16 µg/mL |  |
| CC(C)(O/N=C(\C(=O)N[C@@H]1C(=O)N2C(C(=O)[O-])=C(C[n+]3ccccc3)CS[C@H]12)c1csc(N)n1)C(=O)O [CEFTAZIDIME] | > 128 µg/mL | 128 µg/mL (≈ 234 µM) | 64 µg/mL (≈ 117 µM) | 128 µg/mL (≈ 234 µM) | 64 µg/mL (≈ 117 µM) | 128 µg/mL (≈ 234 µM) | 128 µg/mL (≈ 234 µM) | 128 µg/mL (≈ 234 µM) | 128 µg/mL (≈ 234 µM) | 128 µg/mL (≈ 234 µM) | 1 µg/mL (≈ 1.83 µM) |
| CO/N=C(\C(=O)N[C@@H]1C(=O)N2C(C(=O)O)=C(COC(C)=O)CS[C@H]12)c1csc(N)n1 [CEFOTAXIME] | > 128 µg/mL | 16 µg/mL (≈ 35.1 µM) | 2 µg/mL (≈ 4.39 µM) | 64 µg/mL (≈ 141 µM) | 64 µg/mL (≈ 141 µM) | 4 µg/mL (≈ 8.78 µM) | 16 µg/mL (≈ 35.1 µM) | 16 µg/mL (≈ 35.1 µM) | 64 µg/mL (≈ 141 µM) | 4 µg/mL (≈ 8.78 µM) | < 0.25 µg/mL |
| O=C(O)c1cn(C2CC2)c2cc(N3CCNCC3)c(F)cc2c1=O [CIPROFLOXACIN] | 16 µg/mL (≈ 48.3 µM) |  |  | 16 µg/mL (≈ 48.3 µM) |  |  | > 16 µg/mL |  |  | 16 µg/mL (≈ 48.3 µM) |  |
